In patent publication US20260125382A1, “COMPOUNDS FOR INHIBITING OR DEGRADING CDK2 AND/OR CDK9 AND MEDICINAL USE THEREOF” (KOREA RESEARCH INSTITUTE OF CHEMICAL TECHNOLOGY, priority 2022, published 2026):

How the values were obtained:
[1] = target: T1, CDK9 (Homo sapiens, UniProt P50750); assay: CDK protein degradation activity (Western blotting), CDK9; format: cell-based; conditions: MDA-MB-231 cells, 16 hours, Western blot
T1 construct: endogenous in cells; host or cells: MDA-MB-231
Summary of the method: (§1)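 MDA-MB-231; cmpd 100 nM / 1 μM / 10 μM final vs DMSO, 16 h. Triton X-100 lysates (pH 7.5, phosphatase/protease inhibitors) → SDS-PAGE → Western blot, anti-CDK2, anti-CDK9, tubulin loading control; densitometry.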

[2] = target: T2, CDK2 (Homo sapiens, UniProt P24941); assay: CDK protein degradation activity (Western blotting), CDK2; format: cell-based; conditions: MDA-MB-231 cells, 16 hours, Western blot
T2 construct: endogenous in cells; host or cells: MDA-MB-231
Summary of the method: as §1

T1 sequence (P50750 whole entry): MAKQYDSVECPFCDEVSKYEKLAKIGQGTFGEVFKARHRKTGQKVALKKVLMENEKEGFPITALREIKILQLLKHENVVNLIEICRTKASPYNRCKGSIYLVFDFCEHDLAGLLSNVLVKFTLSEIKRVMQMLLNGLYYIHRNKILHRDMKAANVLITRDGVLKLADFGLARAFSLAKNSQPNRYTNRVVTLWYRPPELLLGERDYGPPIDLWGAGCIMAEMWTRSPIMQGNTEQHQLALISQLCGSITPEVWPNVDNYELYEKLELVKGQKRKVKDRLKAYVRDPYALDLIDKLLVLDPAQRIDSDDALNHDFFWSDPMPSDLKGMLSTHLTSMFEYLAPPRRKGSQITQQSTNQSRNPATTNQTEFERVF

| Compound | Enzyme degradation CDK9 (% remaining) @ 0.1 μM [1] | Enzyme degradation CDK9 (% remaining) @ 1 μM [1] | Enzyme degradation CDK9 (% remaining) @ 10 μM [1] | Enzyme degradation CDK2 (% remaining) @ 0.1 μM [2] | Enzyme degradation CDK2 (% remaining) @ 1 μM [2] | Enzyme degradation CDK2 (% remaining) @ 10 μM [2] |
| --- | --- | --- | --- | --- | --- | --- |
| O=C1CC[C@H](N2C(=O)c3ccc(N4CCC(C(=O)N5CCN(CCC6CCN(c7ccc(Nc8ncnc9c8ncn9[C@H]8C[C@@H](NC(=O)Cc9ccccc9)C8)cc7)CC6)CC5)CC4)cc3C2=O)C(=O)N1 [Compound 363, N-((1s,3s)-3-(6-((4-(4-(2-(4-(1-(2-(2,6-dioxopiperidin-3-yl)-1,3-dioxoisoindolin-5-yl)piperidin-4-carbonyl)piperazin-1-yl)ethyl)piperidin-1-yl)phenyl)amino)-9H-purin-9-yl)cyclobutyl)-2-phenylacetamide] | 40% | 0% | 0% | 100% | 50% | 30% |
| O=C1CC[C@H](N2C(=O)c3ccc(N4CC(C(=O)N5CCN(C6CCN(c7ccc(Nc8ncnc9c8ncn9C8CC(NC(=O)Cc9ccccc9)C8)cc7)CC6)CC5)C4)cc3C2=O)C(=O)N1 (stereo partly drawn) [Compound 364, N-((1s,3s)-3-(6-((4-(4-(4-(1-(2-(2,6-dioxopiperidin-3-yl)-1,3-dioxoisoindolin-5-yl)azetidin-3-carbonyl)piperazin-1-yl)piperidin-1-yl)phenyl)amino)-9H-purin-9-yl)cyclobutyl)-2-phenylacetamide] | 70% | 10% | 10% | 100% | 50% | 50% |
| O=C1CC[C@H](N2C(=O)c3ccc(N4CCC(C(=O)N5CCN(C6CCN(c7ccc(Nc8ncnc9c8ncn9C8CC(NC(=O)Cc9ccccc9)C8)cc7)CC6)CC5)CC4)cc3C2=O)C(=O)N1 (stereo partly drawn) [Compound 365, N-((1s,3s)-3-(6-((4-(4-(4-(1-(2-(2,6-dioxopiperidin-3-yl)-1,3-dioxoisoindolin-5-yl)piperidin-4-carbonyl)piperazin-1-yl)piperidin-1-yl)phenyl)amino)-9H-purin-9-yl)cyclobutyl)-2-phenylacetamide] | 30% | 10% | 10% | 60/60/60% | 60/60/60% | 60/60/60% |
| O=C1CC[C@H](N2C(=O)c3ccc(N4CCC(C(=O)N5CCN(CCCC6CCN(c7ccc(Nc8ncnc9c8ncn9[C@H]8C[C@@H](NC(=O)Cc9ccccc9)C8)cc7)CC6)CC5)CC4)cc3C2=O)C(=O)N1 [Compound 367, N-((1s,3s)-3-(6-((4-(4-(3-(4-(1-(2-(2,6-dioxopiperidin-3-yl)-1,3-dioxoisoindolin-5-yl)piperidin-4-carbonyl)piperazin-1-yl)propyl)piperidin-1-yl)phenyl)amino)-9H-purin-9-yl)cyclobutyl)-2-phenylacetamide] | 10% | 0% | 0% | 10% | 0% | 0% |
| O=C1CC[C@H](N2C(=O)c3ccc(N4CC(C(=O)N5CCC(CCCN6CCN(c7ccc(Nc8ncnc9c8ncn9C8CC(NC(=O)Cc9ccccc9)C8)cc7)CC6)CC5)C4)cc3C2=O)C(=O)N1 (stereo partly drawn) [Compound 372, N-((1s,3s)-3-(6-((4-(4-(3-(1-(1-(2-(2,6-dioxopiperidin-3-yl)-1,3-dioxoisoindolin-5-yl)azetidin-3-carbonyl)piperidin-4-yl)propyl)piperazin-1-yl)phenyl)amino)-9H-purin-9-yl)cyclobutyl)-2-phenylacetamide] | 0/0/0% | 0/0/0% | 0/0/0% | 90% | 50% | 50% |
| O=C1CC[C@H](N2C(=O)c3ccc(N4CC(C(=O)N5CCN(C6CN(c7ccc(Nc8ncnc9c8ncn9[C@H]8C[C@@H](NC(=O)Cc9ccccc9)C8)cc7)C6)CC5)C4)cc3C2=O)C(=O)N1 [Compound 373, N-((1s,3s)-3-(6-((4-(3-(4-(1-(2-(2,6-dioxopiperidin-3-yl)-1,3-dioxoisoindolin-5-yl)azetidin-3-carbonyl)piperazin-1-yl)azetidin-1-yl)phenyl)amino)-9H-purin-9-yl)cyclobutyl)-2-phenylacetamide] | 40% | 20% | 20% | 30/30/30% | 30/30/30% | 30/30/30% |
| O=C1CCC(N2C(=O)c3ccc(N4CC(C(=O)N5CCN(C6CN(c7ccc(Nc8ncnc9c8ncn9[C@H]8C[C@@H](NC(=O)Cc9ccccc9)C8)cc7)C6)CC5)C4)cc3C2=O)C(=O)N1 (stereo partly drawn) [Compound 374, N-((1s,3s)-3-(6-((4-(3-(4-(1-(2-(2,6-dioxopiperidin-3-yl)-1,3-dioxoisoindolin-5-yl)azetidin-3-carbonyl)piperazin-1-yl)azetidin-1-yl)phenyl)amino)-9H-purin-9-yl)cyclobutyl)-2-phenylacetamide] | 30% | 20% | 20% | 30% | 30% | 50% |
| O=C1CC[C@H](N2C(=O)c3ccc(N4CCC(C(=O)N5CCC6(CC5)CC(N5CCN(c7ccc(Nc8ncnc9c8ncn9[C@H]8C[C@@H](NC(=O)c9c(Cl)cccc9Cl)C8)cc7)CC5)C6)CC4)cc3C2=O)C(=O)N1 [Compound 376, 2,6-dichloro-N-((1s,3s)-3-(6-((4-(4-(7-(1-(2-(2,6-dioxopiperidin-3-yl)-1,3-dioxoisoindolin-5-yl)piperidin-4-carbonyl)-7-azaspiro[3.5]nonan-2-yl)piperazin-1-yl)phenyl)amino)-9H-purin-9-yl)cyclobutyl)benzamide] | 10/10/10% | 10/10/10% | 10/10/10% | 30/30/30% | 30/30/30% | 30/30/30% |

Other lines, results leading:

| Enzyme degradation CDK9 (% remaining) @ 0.1 μM [1] | Enzyme degradation CDK9 (% remaining) @ 1 μM [1] | Enzyme degradation CDK9 (% remaining) @ 10 μM [1] | Enzyme degradation CDK2 (% remaining) @ 0.1 μM [2] | Enzyme degradation CDK2 (% remaining) @ 1 μM [2] | Enzyme degradation CDK2 (% remaining) @ 10 μM [2] | Compound |
| --- | --- | --- | --- | --- | --- | --- |
| 0/0/0% | 0/0/0% | 0/0/0% | 0/0/0% | 0/0/0% | 0/0/0% | O=C1CC[C@H](n2nnc3ccc(N4CCN(CC5CCN(c6ccc(Nc7ncnc8c7ncn8C7CC(NC(=O)c8c(Cl)cccc8Cl)C7)cc6)CC5)CC4)cc3c2=O)C(=O)N1 (stereo partly drawn) [Compound 370, 2,6-dichloro-N-((1s,3s)-3-(6-((4-(4-((4-(3-(2,6-dioxopiperidin-3-yl)-4-oxo-3,4-dihydrobenzo[d][1,2,3]triazin-6-yl)piperazin-1-yl)methyl)piperidin-1-yl)phenyl)amino)-9H-purin-9-yl)cyclobutyl)benzamide] |
| 0/0/0% | 0/0/0% | 0/0/0% | 0/0/0% | 0/0/0% | 0/0/0% | O=C1CC[C@H](n2nnc3ccc(N4CCC(CN5CCN(c6ccc(Nc7ncnc8c7ncn8C7CC(NC(=O)c8c(Cl)cccc8Cl)C7)cc6)CC5)CC4)cc3c2=O)C(=O)N1 (stereo partly drawn) [Compound 371, 2,6-dichloro-N-((1s,3s)-3-(6-((4-(4-((1-(3-(2,6-dioxopiperidin-3-yl)-4-oxo-3,4-dihydrobenzo[d][1,2,3]triazin-6-yl)piperidin-4-yl)methyl)piperazin-1-yl)phenyl)amino)-9H-purin-9-yl)cyclobutyl)benzamide] |
| 30% | 10% | 10% | 30% | 10% | 10% | O=C1CC[C@H](N2C(=O)c3ccc(N4CC(CN5CCC(CCN6CCN(c7ccc(Nc8ncnc9c8ncn9[C@H]8C[C@@H](NC(=O)Cc9ccccc9)C8)cc7)CC6)CC5)C4)cc3C2=O)C(=O)N1 [Compound 375, N-((1s,3s)-3-(6-((4-(4-(2-(1-((1-(2-(2,6-dioxopiperidin-3-yl)-1,3-dioxoisoindolin-5-yl)azetidin-3-yl)methyl)piperidin-4-yl)ethyl)piperazin-1-yl)phenyl)amino)-9H-purin-9-yl)cyclobutyl)-2-phenylacetamide] |
| 0/0/0% | 0/0/0% | 0/0/0% | 20% | 10% | 10% | Cc1cccc(C(=O)N[C@H]2C[C@@H](n3cnc4c(Nc5ccc(N6CCN(CC7CCN(c8cc9c(cc8F)C(=O)N([C@H]8CCC(=O)NC8=O)C9=O)CC7)CC6)cc5)ncnc43)C2)n1 [Compound 377, N-((1s,3s)-3-(6-((4-(4-((1-(2-(2,6-dioxopiperidin-3-yl)-6-fluoro-1,3-dioxoisoindolin-5-yl)piperidin-4-yl)methyl)piperazin-1-yl)phenyl)amino)-9H-purin-9-yl)cyclobutyl)-6-methylpicolinamide] |
